Consider one compound from ChEMBL document CHEMBL1155692, “An unusual nitrogenous terphenyl derivative from fruiting bodies of the basidiomycete Sarcodon leucopus” (2000).

Converted amounts (≈) assume the structure as drawn.

One test relates to KB. The test is described as follows: Cytotoxicity against human KB cells. To be noted: read-out: ED50 (the source's name). Type of test: functional.
In another test the test system is P388. As to the kind of experiment: Cytotoxicity against mouse P388 cells. To be noted: read-out: ED50 (the source's name). It counts as functional.

Turning to `CC[C@@H](C)[C@]12Oc3cc(-c4c(O)c(O)c(-c5ccc(OC(C)=O)cc5)c(OC(C)=O)c4OC(C)=O)ccc3O[N+]1([O-])C(O)=C([C@@H](C)CC)N(O)C2=O` (some centres not stated) [SARCODONIN], the figures for the EC50 in the test with KB and in the test on P388 were 10 µg/mL (≈ 13.8 µM) and 27 µg/mL (≈ 37.4 µM), respectively.
